From patent US20100216857A1, “METHOD OF TREATING MOTOR DISORDERS WITH 4-(1-(2,3-DIMETHYLPHENYL)ETHYL)-1H-IMIDAZOLE-2(3H)-THIONE” (priority 2007, published 2010)
Several values for one entry are separate records, joined by “and”; a condition that tells them apart may be missing. Equal values may be shown once. Marks after values point to notes of the source that are not given here.

Assays:
[1] = test system: Cocaine-induced Hyperlocomotion; assay: Cocaine-induced hyperlocomotion in the open field; assay type: in vivo, mice; details: for % DECREASE ACTIVITY (relative to Vehicle+Cocaine) / TOTAL ACTIVITY POST-COCAINE (AUC): mice, 15 min before cocaine SC
Description: Drug 1 was administered 30 minutes after the animal was placed in the open field. Drug 2 was administered subcutaneously (SC) at 45 minutes after the animal was placed in the open field (15 minutes after drug 1). AUC indicates the total amount of locomotor activity after administration of drug 2. “% decrease activity” indicates the percentage decrease in total activity relative to the Vehicle+Cocaine group. ⋄ indicates significant difference (P≦0.05) relative to Vehicle+Cocaine treated animals. * indicates significant difference (P≦0.05) relative to Vehicle+Vehicle treated animals. Amphetamine- or cocaine-induced hyperactivity. Mice were placed in an open field apparatus (FlexField, San Diego Instruments, San Diego, Calif.). […] Total activity over each 5 minute bin (21 total bins) was added to establish activity curve over the 105 minute testing. For i.p. administration, the compounds are formulated in H2O with 0.5% DMSO and given in a volume of 1 ml/kg body weight by injecting into the intraperitoneal cavity. For p.o. administration, the compounds are formulated in H2O with 0.5% DMSO and given in a volume of 2 ml/kg body weight using a 25-gauge, 1.5 inch gavage needle that is slowly inserted through the esophagus into the stomach.

[2] = test system: Nigrostriatal-lesion-induced Rotational Behavior; assay: Nigrostriatal-lesion-induced rotational behavior following amphetamine administration; assay type: in vivo, rats; details: for % DECREASE ROTATIONS (relative to Vehicle+Amphetamine): nigrostriatal-lesioned rats, 15 min before amphetamine SC
Description: Table 3, below, indicates the changes in rotational behavior in nigrostriatal-lesioned rats treated with the compound of the invention and the psychostimulant amphetamine. Drug 1 was administered 15 minutes before amphetamine, and 10 minutes post-amphetamine, the animals were placed into the rotometer for 30 or 60 minutes. “% decrease rotations” indicates the percentage decrease in total rotations relative to the Vehicle+Amphetamine group. ⋄ indicates significant difference (P≦0.05) relative to Vehicle+Amphetamine treated animals. * indicates significant difference (P+0.05) relative to Vehicle+Vehicle treated animals.
Amphetamine-induced rotational behavior. Pre-Apomorphine-screened (rotated) rats (with lesions ≧95% DA cell loss) were purchased from Charles Rivers Laboratories. Animals were given ˜4 days to acclimate prior to testing. All animals weighted 250-300 g at the beginning of the study. Animals were treated with various combinations of vehicle or the compound of the invention and amphetamine.
Vehicle or the compound of the invention was administered (p.o.) 15 minutes before amphetamine (2 mg/kg s.c.). Rotational behavior was assessed 15 minutes post-amphetamine administration and was monitored for 60 minutes using a Rotometer system from San Diego Instruments (San Diego, Calif.).
For i.p. administration, the compounds are formulated in H2O with 0.5% DMSO and given in a volume of 1 ml/kg body weight by injecting into the intraperitoneal cavity. For p.o. administration, the compounds are formulated in H2O with 0.5% DMSO and given in a volume of 2 ml/kg body weight using a 25-gauge, 1.5 inch gavage needle that is slowly inserted through the esophagus into the stomach.

[3] = test system: Amphetamine-induced Hyperlocomotion; assay: Amphetamine-induced hyperlocomotion in the open field; assay type: in vivo, mice; details: for % DECREASE ACTIVITY REL TO VEH + AMPH / TOTAL ACTIVITY POST-AMPHETAMINE (AUC): mice, 15 min before amphetamine SC
Description: Drug 1 was administered 30 minutes after the animal was placed in the open field. Drug 2 was administered subcutaneously (SC) at 45 minutes after the animal was placed in the open field (15 minutes after drug 1). AUC indicates the total amount of locomotor activity after administration of drug 2. “% decrease activity” indicates the percentage decrease in total activity relative to the Vehicle+Amphetamine group. ⋄ significant difference (P<0.05) relative to Vehicle+ Amphetamine treated animals. * indicates significant difference (P ≦0.05) relative to Vehicle+Vehicle treated animals. Amphetamine- or cocaine-induced hyperactivity. Mice were placed in an open field apparatus (FlexField, San Diego Instruments, San Diego, Calif.). […] Total activity over each 5 minute bin (21 total bins) was added to establish activity curve over the 105 minute testing. For i.p. administration, the compounds are formulated in H2O with 0.5% DMSO and given in a volume of 1 ml/kg body weight by injecting into the intraperitoneal cavity. For p.o. administration, the compounds are formulated in H2O with 0.5% DMSO and given in a volume of 2 ml/kg body weight using a 25-gauge, 1.5 inch gavage needle that is slowly inserted through the esophagus into the stomach.

[4] = drug 1 at 0.1 mg/kg PO, 0.1 mg/kg

| Structure (SMILES) | inhibition of increased locomotion associated with psychostimulant administration (in words) ([1]; cocaine-induced hyperactivity) | % DECREASE ACTIVITY (relative to Vehicle+Cocaine) ([1]; drug 1 at 0.01 mg/kg PO) [%^⋄] | TOTAL ACTIVITY POST-COCAINE (AUC) ([1]; drug 1 at 0.01 mg/kg PO) | % DECREASE ACTIVITY (relative to Vehicle+Cocaine) ([1]; drug 1 at 0.03 mg/kg PO) [%*] | TOTAL ACTIVITY POST-COCAINE (AUC) ([1]; drug 1 at 0.03 mg/kg PO) | % DECREASE ACTIVITY (relative to Vehicle+Cocaine) ([1]; drug 1 at 0.1 mg/kg PO) [%^⋄] | TOTAL ACTIVITY POST-COCAINE (AUC) ([1]; drug 1 at 0.1 mg/kg PO) | inhibition of amphetamine-induced rotational behavior (in words) ([2]; nigrostriatal-lesioned animals) | % DECREASE ROTATIONS (relative to Vehicle+Amphetamine) ([2]; drug 1 at 0.03 mg/kg PO) [%^⋄] | % DECREASE ROTATIONS (relative to Vehicle+Amphetamine) ([2]; drug 1 at 0.1 mg/kg PO) [%^⋄] | % DECREASE ROTATIONS (relative to Vehicle+Amphetamine) ([2]; drug 1 at 1 mg/kg PO) [%^⋄*] | inhibition of increased locomotion associated with psychostimulant administration (in words) ([3]; amphetamine-induced hyperactivity) | % DECREASE ACTIVITY REL TO VEH + AMPH ([3]; drug 1 at 0.01 mg/kg PO) [%*] | TOTAL ACTIVITY POST-AMPHETAMINE (AUC) ([3]; drug 1 at 0.01 mg/kg PO) | % DECREASE ACTIVITY REL TO VEH + AMPH ([3]; drug 1 at 0.03 mg/kg PO) [%^⋄] | TOTAL ACTIVITY POST-AMPHETAMINE (AUC) ([3]; drug 1 at 0.03 mg/kg PO) | % DECREASE ACTIVITY REL TO VEH + AMPH [3, 4] | TOTAL ACTIVITY POST-AMPHETAMINE (AUC) [3, 4] | % DECREASE ACTIVITY REL TO VEH + AMPH ([3]; drug 1 at 0.2 mg/kg IP) [%^⋄*] | TOTAL ACTIVITY POST-AMPHETAMINE (AUC) ([3]; drug 1 at 0.2 mg/kg IP) |
| --- | --- | --- | --- | --- | --- | --- | --- | --- | --- | --- | --- | --- | --- | --- | --- | --- | --- | --- | --- | --- |
| Cc1cccc(C(C)c2c[nH]c(=S)[nH]2)c1C (centres unmarked) [Compound of the invention, 4-(1-(2,3-dimethylphenyl)ethyl)-1H-imidazole-2(3H)-thione] | effectively inhibit increased locomotion | 53 | 4904 ± 1832.1 | 31 | 7260.8 ± 1756.5 | 64 | 3754.3 ± 1281.9 | inhibit amphetamine-induced rotational behavior | 68 | 68 | 46 | effectively inhibit increased locomotion | 32 | 9093.3 ± 983.8 | 72 | 3783.3 ± 214.2 | 63%^⋄ and 72%^⋄ | 5036.0 ± 654.2 and 3759.1 ± 685.4 |  |  |
| O=C(CCCN1CCC(O)(c2ccc(Cl)cc2)CC1)c1ccc(F)cc1 [Haloperidol, reference compound] |  |  |  |  |  |  |  |  |  |  |  |  |  |  |  |  |  |  | 91 | 1123.16 ± 280.11 |
